Results reported in patent US7541331B2, “Surfactant treatment regimen” (Discovery Laboratories, Inc., priority 2005, dated 2009).

System: premature neonates
Test: Pilot phase 2 open study of lucinactant delivered as an aerosol via nCPAP for prevention of RDS
Settings: in vivo
Method: This example provides a protocol for administration of lucinactant as an aerosol via nCPA to premature infants. This protocol has been used in a pilot phase 2, open study to evaluate the feasibility, safety, and tolerability of lucinactant delivered as an aerosol via nCPAP for the prevention of RDS in premature neonates.
Lucinactant was administered using an approved vibrating machine device (Aeroneb-Pro® or equivalent) and delivered via nCPAP within 30 minutes of birth. In a first treatment group, 20 mg/ml of lucinactant was administered within the first 30 minutes of life continually over three hours. Up to three retreatments were permitted over a 48 hour period, with each treatment separated by at least 3 hours (from end of previous treatment). In a second treatment group, 20 mg/ml of lucinactant was administered within the first 30 minutes of life continually over three hours. Up to three retreatments were permitted over a 48 hour period, with each treatment separated by at least one hours (from end of previous treatment).
Qualified premature neonates were sequentially enrolled and stratified by gestational age (stratum 1:30-32 completed weeks followed by stratum 2:28-29 completed weeks) into the first treatment regimen group (3 hours on aerosol treatment/3 hours off aerosol treatment) and received aerosolized lucinactant via nCPAP. Safety and tolerability data were evaluated after enrollment of every five neonates. Once enrollment in the first treatment group was completed, neonates were sequentially enrolled and stratified into the second treatment group (3 hours on aerosol treatment/1 hours off aerosol treatment). All neonates enrolled were evaluated through 28 days of age.

Substance: lucinactant
- adverse effects considered related to both study drug and the device: 35.3%
- adverse effects considered related to study drug: 47.1%
- adverse effects considered related to the device: 11.8%
- incidence of apnea: 94.1%
- incidence of hypocalcemia: 29.4%
- incidence of oxygen saturation decreased: 70.6%
- incidence of patent ductus arteriosus: 35.3%
- safety and tolerability of treatment: generally safe and well tolerated
- serious adverse effects considered related to the device: Two
- total adverse effects reported: 83
- total serious adverse effects reported: 5
